ChEMBL document CHEMBL1159306, “Juncenolide A, a new briarane from the Taiwanese Gorgonian Junceella juncea” (J Nat Prod, 2002)
Converted amounts (≈) assume the structure as drawn.

Columns and labels:
[1] = Cytotoxicity against human DLD cells; type: functional, cell-based
[2] = Cytotoxicity against human KB16 cells; type: functional, cell-based

## C=C1CC[C@H](OC(=O)C(C)C)[C@@]2(C)[C@@H](OC(C)=O)CC[C@@]3(CO3)[C@@H]2[C@H](OC(C)=O)[C@]2(O)[C@@H](C)C(=O)O[C@H]2[C@H]1Cl [JUNCENOLIDE A]
[1]
  IC50: 3.4 µg/mL (≈ 5.95 µM)
[2]
  IC50: 5.9 µg/mL (≈ 10.3 µM)
